The source made the active and inactive calls.
Columns and labels:
[1] = cytotoxicity in HEK-293T cells, dose response, cytotoxicity control for BCR NF-kB inhibitor project, luminescence, B-cell screen hits (AID 489021); type: functional, cell-based;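 further: HEK-293T cells carrying an NF-kB luciferase reporter; cells exposed to compound for about 14 hours before viability readout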
Aminopeptidase N = target: T1, Aminopeptidase N (Plasmodium falciparum FcB1/Columbia, UniProt O96935); test: P. falciparum M1AAP inhibitors, biochemical, fluorogenic H-Leu-NHMec substrate, 1536-well (AID 1445); set-up: species or system Plasmodium falciparum 3D7, 3D7
T1 sequence (O96935 whole entry): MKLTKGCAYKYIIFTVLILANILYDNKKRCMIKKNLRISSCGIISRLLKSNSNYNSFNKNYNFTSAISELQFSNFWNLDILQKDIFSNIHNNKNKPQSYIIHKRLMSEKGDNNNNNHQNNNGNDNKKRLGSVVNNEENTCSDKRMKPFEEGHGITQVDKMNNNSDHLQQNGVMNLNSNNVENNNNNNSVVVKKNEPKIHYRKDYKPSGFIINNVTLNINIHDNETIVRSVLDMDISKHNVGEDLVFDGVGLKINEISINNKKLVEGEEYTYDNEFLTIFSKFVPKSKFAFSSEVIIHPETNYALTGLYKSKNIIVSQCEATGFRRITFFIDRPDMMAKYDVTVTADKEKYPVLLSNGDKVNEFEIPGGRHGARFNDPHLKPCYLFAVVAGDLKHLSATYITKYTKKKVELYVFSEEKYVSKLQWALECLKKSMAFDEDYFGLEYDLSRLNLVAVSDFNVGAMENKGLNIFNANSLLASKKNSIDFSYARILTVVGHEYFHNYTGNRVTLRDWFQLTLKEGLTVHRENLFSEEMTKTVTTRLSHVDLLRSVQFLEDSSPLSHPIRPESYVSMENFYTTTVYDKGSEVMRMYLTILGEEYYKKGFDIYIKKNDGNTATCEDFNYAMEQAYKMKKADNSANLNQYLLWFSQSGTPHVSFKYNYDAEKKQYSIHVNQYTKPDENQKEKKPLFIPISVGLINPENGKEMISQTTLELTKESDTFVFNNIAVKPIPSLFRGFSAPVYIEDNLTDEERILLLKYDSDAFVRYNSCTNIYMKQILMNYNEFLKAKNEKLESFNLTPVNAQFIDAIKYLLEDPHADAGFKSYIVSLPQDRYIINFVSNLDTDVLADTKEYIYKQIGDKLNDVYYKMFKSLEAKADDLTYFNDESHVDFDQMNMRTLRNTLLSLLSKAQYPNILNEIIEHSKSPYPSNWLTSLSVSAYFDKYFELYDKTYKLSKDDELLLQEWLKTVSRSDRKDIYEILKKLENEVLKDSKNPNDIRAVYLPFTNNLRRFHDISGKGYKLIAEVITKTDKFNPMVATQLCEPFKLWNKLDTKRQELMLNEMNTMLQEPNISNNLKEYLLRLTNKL

[2] = target: Glucose-6-phosphate 1-dehydrogenase (Homo sapiens, UniProt P11413); test: human G6PD enzyme inhibitors, dose response, selectivity assay for P. falciparum G6PD inhibitor project, biochemical, fluorescence (AID 504792); type: functional
Coagulation factor XII = target: T2, Coagulation factor XII (Homo sapiens, UniProt P00748); type: functional;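 further: activated factor XIIa alpha cleaving a fluorogenic AMC peptide substrate; inhibitor potency from loss of enzyme activity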
T2 sequence (P00748 whole entry): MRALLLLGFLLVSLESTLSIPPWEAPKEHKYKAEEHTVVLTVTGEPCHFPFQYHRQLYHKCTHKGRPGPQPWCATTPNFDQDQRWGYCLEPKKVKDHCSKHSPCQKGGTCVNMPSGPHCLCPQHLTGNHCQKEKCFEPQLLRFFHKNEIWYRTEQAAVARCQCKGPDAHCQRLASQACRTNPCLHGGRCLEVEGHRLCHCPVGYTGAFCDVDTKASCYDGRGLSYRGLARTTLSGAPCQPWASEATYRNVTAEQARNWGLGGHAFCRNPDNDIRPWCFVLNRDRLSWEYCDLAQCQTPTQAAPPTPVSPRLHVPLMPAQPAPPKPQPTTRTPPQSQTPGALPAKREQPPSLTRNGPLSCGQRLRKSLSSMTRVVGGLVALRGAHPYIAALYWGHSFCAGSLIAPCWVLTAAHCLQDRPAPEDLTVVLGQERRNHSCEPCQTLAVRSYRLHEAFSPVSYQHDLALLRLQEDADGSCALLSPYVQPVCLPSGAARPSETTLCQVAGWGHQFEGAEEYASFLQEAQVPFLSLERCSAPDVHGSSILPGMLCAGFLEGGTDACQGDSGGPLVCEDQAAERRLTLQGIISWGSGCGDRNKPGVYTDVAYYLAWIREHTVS

cells = type: functional
Protein RecA = target: T3, Protein RecA (Mycobacterium tuberculosis, UniProt P9WHJ3); test: Fluorescence Cell-Free Homogeneous Dose Retest to Identify Inhibitors of RecA-Intein Splicing Activity. [Related pubchem assays (depositor defined):AID2097, AID2223, AID489010, AID492950]; type: functional
T3 sequence (P9WHJ3 whole entry): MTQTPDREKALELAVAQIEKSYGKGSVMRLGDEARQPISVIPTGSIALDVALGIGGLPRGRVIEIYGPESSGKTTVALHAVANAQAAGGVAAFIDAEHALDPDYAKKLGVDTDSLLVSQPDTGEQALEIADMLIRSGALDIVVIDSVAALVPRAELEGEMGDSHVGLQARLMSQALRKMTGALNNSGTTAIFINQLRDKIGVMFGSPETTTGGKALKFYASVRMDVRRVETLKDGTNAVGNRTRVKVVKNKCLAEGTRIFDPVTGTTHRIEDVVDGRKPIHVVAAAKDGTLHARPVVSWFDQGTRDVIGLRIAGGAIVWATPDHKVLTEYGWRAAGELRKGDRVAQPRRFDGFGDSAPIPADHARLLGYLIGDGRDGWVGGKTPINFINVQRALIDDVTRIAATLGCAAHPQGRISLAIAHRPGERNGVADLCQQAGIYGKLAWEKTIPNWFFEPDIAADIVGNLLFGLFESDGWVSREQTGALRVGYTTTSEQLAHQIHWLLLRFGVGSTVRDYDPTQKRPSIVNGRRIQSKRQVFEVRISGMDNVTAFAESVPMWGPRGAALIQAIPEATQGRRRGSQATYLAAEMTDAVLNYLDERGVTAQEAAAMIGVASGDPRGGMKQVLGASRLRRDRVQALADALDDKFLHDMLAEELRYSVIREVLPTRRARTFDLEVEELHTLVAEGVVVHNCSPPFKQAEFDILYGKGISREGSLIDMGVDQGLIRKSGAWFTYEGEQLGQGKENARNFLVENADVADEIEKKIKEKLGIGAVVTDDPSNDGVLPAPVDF

[3] = target: DNA dC->dU-editing enzyme APOBEC-3G (Homo sapiens, UniProt Q9HC16); test: Dose Response confirmation of small molecule APOBEC3G DNA Deaminase Inhibitors via a fluorescence-based single-stranded DNA deaminase assay. [Related pubchem assays (depositor defined):AID493012, AID493028]; type: functional
[4] = inhibitors of intracellular T. cruzi replication, confirmation, NIH3T3 host cells, beta-gal luminescence (AID 2044); type: functional, cell-based;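 further: intracellular parasites grown in NIH/3T3 mouse fibroblasts as host cells; luminescent beta-galactosidase reporter signal from transgenic T. cruzi replicating inside host cells; inhibitors lower the luminescence signal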
[5] = cytotoxicity toward NIH3T3 fibroblasts, dose response, counter-screen, cell-based, ATP luminescence, mouse fibroblasts (AID 2010); type: functional;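 further: cells exposed to compound for about 90 hours before reading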
Vero = test: cells; type: functional; conditions: Chlorocebus sabaeus
[6] = growth suppression of PTEN-null colon cells, dose response, cell-based, HCT116 PTEN knockout (AID 1047); type: functional;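 further: HCT116 colon tumor cells with PTEN knocked out; cells exposed to compound for 60 hours before readout; potency for loss of cell viability measured by luminescence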
[7] = growth suppression of beta-catenin-knockout colon cells, dose response, cell-based, HCT116, human colon tumor (AID 1045); type: functional;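 further: HCT116 colon tumor cells with beta catenin knocked out; cells exposed to compound for 60 hours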
HEK293 [8] = test: NOD1 signaling inhibitors, primary screen, cell-based, luminescence, uHTS (AID 1578); type: functional; conditions: Homo sapiens
HEK293 [9] = test: cells; type: functional, cell-based; conditions: Homo sapiens
HEK293 [10] = test: cells; type: functional, cell-based; conditions: Homo sapiens; remark: listed apart in the source
[11] = target: Nucleotide-binding oligomerization domain-containing protein 2 (Homo sapiens, UniProt Q9HC29); test: NOD2 signaling inhibitors, cell-based, luminescence, uHTS, HEK293 (AID 1566); type: functional
HEK293 [12] = test: NOD2 signaling inhibitors in MDP-stimulated cells, cell-based, uHTS, luminescence (AID 2001); type: functional; conditions: Homo sapiens
HEK293 [13] = test: cells; type: functional, cell-based; conditions: Homo sapiens; remark: listed apart in the source

Sequence of Glucose-6-phosphate 1-dehydrogenase (P11413 whole entry): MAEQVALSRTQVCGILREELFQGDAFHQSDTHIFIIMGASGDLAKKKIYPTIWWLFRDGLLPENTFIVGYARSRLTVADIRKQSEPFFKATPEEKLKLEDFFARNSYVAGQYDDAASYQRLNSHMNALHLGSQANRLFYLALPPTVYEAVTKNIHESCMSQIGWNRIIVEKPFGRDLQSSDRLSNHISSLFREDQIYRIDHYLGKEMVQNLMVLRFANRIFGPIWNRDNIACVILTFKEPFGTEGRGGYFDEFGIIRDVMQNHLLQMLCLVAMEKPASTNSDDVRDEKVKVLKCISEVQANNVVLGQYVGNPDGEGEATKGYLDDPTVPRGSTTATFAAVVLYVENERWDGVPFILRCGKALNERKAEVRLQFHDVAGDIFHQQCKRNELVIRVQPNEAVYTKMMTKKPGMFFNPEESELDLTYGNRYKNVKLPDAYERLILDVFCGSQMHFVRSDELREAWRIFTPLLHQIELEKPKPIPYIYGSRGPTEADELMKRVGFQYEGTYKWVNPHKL
Sequence of DNA dC->dU-editing enzyme APOBEC-3G (Q9HC16 whole entry): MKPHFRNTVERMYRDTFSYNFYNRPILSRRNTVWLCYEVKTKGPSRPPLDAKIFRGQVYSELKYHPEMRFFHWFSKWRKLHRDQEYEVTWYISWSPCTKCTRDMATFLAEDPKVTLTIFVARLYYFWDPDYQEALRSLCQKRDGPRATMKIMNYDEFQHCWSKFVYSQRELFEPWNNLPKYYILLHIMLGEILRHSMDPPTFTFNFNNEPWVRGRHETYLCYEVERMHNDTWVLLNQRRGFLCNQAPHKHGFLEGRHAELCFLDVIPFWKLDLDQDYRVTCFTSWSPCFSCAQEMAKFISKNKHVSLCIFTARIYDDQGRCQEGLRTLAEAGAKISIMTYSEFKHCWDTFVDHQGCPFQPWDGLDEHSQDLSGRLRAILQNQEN
Sequence of Nucleotide-binding oligomerization domain-containing protein 2 (Q9HC29 whole entry, the tested form may be a part): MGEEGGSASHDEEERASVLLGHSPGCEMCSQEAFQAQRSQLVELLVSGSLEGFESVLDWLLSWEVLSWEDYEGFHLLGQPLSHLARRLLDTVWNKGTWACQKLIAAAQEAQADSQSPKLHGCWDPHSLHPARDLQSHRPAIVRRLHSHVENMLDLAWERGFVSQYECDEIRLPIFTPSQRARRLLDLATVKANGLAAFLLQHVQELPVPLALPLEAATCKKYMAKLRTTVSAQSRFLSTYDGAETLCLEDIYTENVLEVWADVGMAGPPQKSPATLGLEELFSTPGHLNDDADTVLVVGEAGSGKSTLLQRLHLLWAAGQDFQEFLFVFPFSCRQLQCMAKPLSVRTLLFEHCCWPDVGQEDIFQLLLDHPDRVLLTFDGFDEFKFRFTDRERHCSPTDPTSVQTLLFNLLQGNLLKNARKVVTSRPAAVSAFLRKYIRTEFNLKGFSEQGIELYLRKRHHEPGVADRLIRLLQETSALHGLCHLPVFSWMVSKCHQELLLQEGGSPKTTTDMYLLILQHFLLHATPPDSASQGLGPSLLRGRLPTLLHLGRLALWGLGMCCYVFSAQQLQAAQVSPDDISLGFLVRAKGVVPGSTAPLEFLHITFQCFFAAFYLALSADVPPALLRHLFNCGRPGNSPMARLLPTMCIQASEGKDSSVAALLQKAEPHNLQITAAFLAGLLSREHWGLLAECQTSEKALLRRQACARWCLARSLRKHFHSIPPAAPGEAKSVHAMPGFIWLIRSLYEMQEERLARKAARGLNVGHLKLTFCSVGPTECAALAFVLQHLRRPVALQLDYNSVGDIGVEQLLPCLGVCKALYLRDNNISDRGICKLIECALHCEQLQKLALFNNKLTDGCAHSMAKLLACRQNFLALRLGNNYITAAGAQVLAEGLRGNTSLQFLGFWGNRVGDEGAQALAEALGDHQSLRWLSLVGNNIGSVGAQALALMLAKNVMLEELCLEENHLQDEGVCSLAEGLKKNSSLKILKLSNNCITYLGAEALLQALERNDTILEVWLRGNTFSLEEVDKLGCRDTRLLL

For `Cn1c(=O)cc(OCCCC(=O)NC2CCCC2)c2ccccc21`, the IC50 [1] was > 80 µM (inactive).

With `NC(=O)c1ccc(Oc2ccc3ccc(=O)oc3c2)c([N+](=O)[O-])c1` the IC50 (Aminopeptidase N) was 42.5 µM (active).

In the case of `COc1cc(C(=O)ON=C2C=C(C)C(=O)C(C)=C2)cc(OC)c1OC`, the IC50 [2] is reported as > 80 µM (inactive), the IC50 (Coagulation factor XII) is reported as 0.533 µM (active) and the IC50 (cells) is reported as 40.2 µM (active).

With `O=C(CNC(=O)c1ccc(Br)cc1)NCC(=O)OCC(=O)c1ccc([N+](=O)[O-])cc1` the IC50 [2] was > 80 µM (inactive).

For `COc1c(O)ccc2c1CN1CCc3cc4c(cc3C1C2)OCO4` (centres undefined), the IC50 [2] was > 80 µM (inactive) and the EC50 (Protein RecA) was 14 µM (active).

For `CCOCCCn1/c(=N/C(=O)c2cccnc2)c(C(=O)OCC)cc2c(=O)n3ccccc3nc21`, the IC50 [3] was 41.3 µM (active).

In the case of `COc1c(Cl)cc(Cl)cc1C(=O)Nc1ccc(CN2CCCCC2)cc1`, the EC50 [4] is reported as 3 µM (active), the EC50 [5] is reported as > 60 µM (not active) and the CC50 (Vero) is reported as > 25 µM (active).

In the case of `O=C(CCS(=O)(=O)c1ccccc1)Nc1nc2c(s1)COc1ccccc1-2`, the EC50 [6] is reported as 18.7 µM (active), the EC50 [7] is reported as 14.1 µM (active) and the CC50 (Vero) is reported as > 25 µM (active).

In the case of `Cc1cccc(NC(=O)COC(=O)CCc2c[nH]c3ccccc23)c1C`, the IC50 (cells) is reported as 2.82 µM (active).

For `COc1ccc(-c2nsc(SCC(=O)Nc3cc(C)on3)n2)cc1`, the IC50 [1] was > 80 µM (inactive).

With `COCCn1c(C)cc(C(=O)CSc2ncnc3sc4c(c23)CCC4)c1C` the EC50 (HEK293 [8]) was 10.7 µM (active), the IC50 (HEK293 [9]) was 15 µM (active) and the IC50 (HEK293 [10]) was 19.4 µM (active). The EC50 [11] was 8.39 µM (active), the IC50 (HEK293 [12]) was 18.6 µM (inactive) and the IC50 (HEK293 [13]) was > 20 µM (inactive).

With `O=C(Oc1cccc(/C=N/Nc2nc(N3CCOCC3)nc(N3CCOCC3)n2)c1)c1ccco1` the IC50 [1] was > 80 µM (inactive).
